Experimental data taken from patent US12157745B2, “Heterocyclic systems and pharmaceutical compositions thereof” (University of Sharjah, priority 2018, dated 2024).

Tests used:
tubulin = assay: Tubulin polymerization / microtubule formation (immunofluorescence and kit method); type: cell-based; details: in comparison to colchicine and taxol (positive controls); FIGS. 4A and 4B
Protocol: Cell synchronization and tubulin study: The antiproliferative effect of the compound it was tested on MCF7 cells which were synchronized at specific phases of the cell cycle. […] One way of inhibiting cell proliferation in G2/M phase is by altering equilibrium between polymerization and depolymerization of microtubule proteins which is required for active mitotic cell division.
An immunofluorescence method is used for detecting tubulin polymerization effect of compound 1t. The cells (5×10^4/well) were plated overnight on coverslips on a six well plate and treated with IC50 concentration of compound 1t, taxol and colchicine for 24 hours. After treatment, the cells were rinsed twice with PBS, fixed with 3.7% paraformaldehyde, and permeabilized with 0.1% Triton X-100. The cells were then blocked with 1% BSA in PBS for 1 hour before further incubation with anti-p-tubulin mouse monoclonal antibody overnight at 4° C. (Cell Signaling, San Francisco, CA). […]
Tubulin polymerization was measured in vitro using the Tubulin Polymerization Assay kit (Cytoskeleton, Denver, CO). […] The polymerization of tubulin was monitored as fluorescence at 37° C. for 60 min, and the reading speed was programmed at 1 cycle/min with excitation and emission wavelengths of 360 and 450 nm, respectively, using the Varioskan® Flash spectral scanning multimode reader (Thermo Fisher Scientific™). […]

p53 = assay: Western blot, p53 expression; type: cell-based; details: breast cancer cells
Protocol: (§1) The MCF-7, SKBR3 and HCT116 total cell lysate were prepared after 24 hours of treatment with compound it at IC50 and DIC50 doses by using 1× laemmli buffer. Total protein concentration was then estimated for each sample and 15-30 μg of protein lysate were loaded equally on 12% SDS-PAGE gel in order to detect various proteins expression levels. In short, the membrane was incubated with different primary antibodies (as mentioned in above section) (1:1000) overnight after blocking with 5% non-fat milk solution for 1 hour. The membrane was then re-probed with respective mouse/rabbit secondary antibodies (1:2000) for 1 h, and later developed by enhanced chemiluminescence (ECL) method by using a Chemidoc MP (BioRad, Germany).

[1] = tested on: Bid, Bax, caspase-3 & -9, Bcl-xL; assay: Western blot and annexin V, pro- and anti-apoptotic proteins; type: cell-based; details: western blot, confirmed by annexin V study
Protocol: Over-expression of this oncogene could result in tumor cell proliferation and migration and therefore its inhibition may halt tumor growth. Other pro-apoptotic (Bid, Bax, caspase-3 & -9) and anti-apoptotic (Bcl-xL) proteins were also modulated by compound it as evident from western blot analysis and as confirmed by annexin V study (FIG. 7).
as §1
The apoptotic level was measured using a kit method as per supplier's protocol. […] 2×10^6 cells were counted and re-suspended in 1 mL of binding buffer (1×). […] 400 μL of IX binding buffer was finally added to the cells and analyzed immediately by using by a flow cytometer (BD, Accuri C6).

p-Chk2 = assay: DNA damage study, p-Chk2 expression (western blot); type: cell-based
Protocol: However, recruitment of phosphatidylinositol-3-kinase (PI3K) family members to the site of DNA damage is the first step of DNA damage response mechanisms and the phosphorylation of ataxia telangiectasia-mutated (ATM) or ATM-Rad3-related (ATR) kinases often follows. […] Overall, compound it was able to induce DNA damage in an ATR-Chk2 dependent pathway in aggressive breast cancer phenotypes.
as §1

transketolase = target: T1, transketolase (Homo sapiens, UniProt P29401); assay: DARTS proteomic assay; type: binding; details: dose-dependent manner, FIG. 10
T1 construct: HEK293T cells were lysed using M-PER; endogenous in cells; host or cells: HEK293T lysate
Excerpt: The unique properties of compound it prompted an in-depth analysis to explore its potential novel targets.
As TKT reaction plays a pivotal role in pentose phosphate pathway, inhibition of TKT will suppress the pentose phosphate pathway and interrupt the synthesis of coenzymes, ATP, CoA, NAD(P)+, FAD, RNA, and DNA in cancer cells. The over-expressed TKT is reported in many cancer cells, tissues, and patients, wherein it regulates proliferation and viability. A strategy of silencing TKT has shown significant effect in reducing tumor burden in gastric cancer cells. Recent studies have shown that targeting TKT has clinical relevance in cancer therapy, as it can counteract the effect of oxidative stress, a critical factor in cancer development.
A DARTS assay was used to assess the binding of compound 1t. HEK293T cells were lysed using M-PER (Thermo Scientific, Inc.) supplemented with protease and phosphatase inhibitors (Lysis buffer). 4.7 mg/mL of protein and TNC buffer (10 mM Tris, 140 mMNaCl, 5 mM CaCl2)) was added, compound it was diluted in DMSO to 3 different concentrations (0.01 μM, 0.1 μM, 1 μM) and incubated for one hour at room temperature. Trypsin (Promega) was added and incubated for 3 hours at 37° C. Thereafter, M-PER lysis buffer was added and the samples were concentrated with Microcon 10K centrifugal filters. […]

T1 sequence (P29401 whole entry): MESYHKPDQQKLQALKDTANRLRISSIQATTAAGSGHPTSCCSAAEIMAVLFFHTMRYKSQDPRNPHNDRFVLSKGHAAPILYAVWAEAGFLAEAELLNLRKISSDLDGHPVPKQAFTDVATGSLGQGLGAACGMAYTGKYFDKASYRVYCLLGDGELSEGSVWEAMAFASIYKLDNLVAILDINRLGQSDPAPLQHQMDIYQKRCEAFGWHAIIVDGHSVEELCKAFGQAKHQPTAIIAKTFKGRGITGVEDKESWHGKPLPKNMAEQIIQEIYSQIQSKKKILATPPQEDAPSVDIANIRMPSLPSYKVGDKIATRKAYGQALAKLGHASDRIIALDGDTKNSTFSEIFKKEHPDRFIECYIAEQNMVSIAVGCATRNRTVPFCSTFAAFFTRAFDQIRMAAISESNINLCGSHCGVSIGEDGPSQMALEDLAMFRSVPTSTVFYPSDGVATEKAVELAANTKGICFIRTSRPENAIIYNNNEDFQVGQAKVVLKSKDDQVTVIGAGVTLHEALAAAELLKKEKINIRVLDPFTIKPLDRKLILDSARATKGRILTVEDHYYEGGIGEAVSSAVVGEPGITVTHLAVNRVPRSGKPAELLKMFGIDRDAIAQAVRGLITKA

Affinity on transketolase (transketolase): strong affinity
Compound: CC1(C)[C@H]2COc3ccc4ccccc4c3[C@H]2N=C2SC(c3ccccc3)=C(c3ccccc3)N21 [Compound 1t]
Inhibition of microtubule formation (tubulin): strong inhibition | Expression of p53 (p53): up-regulation | Pro-apoptotic (Bid, Bax, caspase-3 & -9) and anti-apoptotic (Bcl-xL) proteins [1]: modulated | Checkpoint kinase p-Chk2 expression (p-Chk2): elevated levels
